We go through one molecule from paper PMC4418665, “Cyclization of the Urokinase Receptor-Derived Ser-Arg-Ser-Arg-Tyr Peptide Generates a Potent Inhibitor of Trans-Endothelial Migration of Monocytes” (PLoS ONE, 2015).

The test system of this assay is RBL-2H3/ETFR cells. The experiment in a line: RBL-2H3/ETFR cell migration, xCELLigence RTCA. It counts as cell-based, rat. Particulars: 4 hours, Cell Index, quadruplicate. As to the method:
We have previously documented that SRSRY competes with the bacterial-derived N-formyl-methionyl-leucyl-phenylalanine peptide (fMLF) for binding to FPR type 1 (FPR1) and that both SRSRY and fMLF promote cell migration by triggering FPR1 internalization. […] Quantification of cell-associated fluorescence was assessed by reading cell lysates with a fluorescence plate reader. RBL-2H3 cells lack FPR1, thus they display very low uptake that was not saturable with unlabeled fMLF (Fig 2A). […] To evaluate the effect of [SRSRY] on agonist-dependent FPR1 internalization, binding experiments were performed at 37°C. […] Thus, we assessed whether [SRSRY] elicits effects on fMLF-directed cell migration. RBL-2H3/ETFR cell migration toward 10 nM fMLF was monitored in real-time for 4 hours as Cell Index changes due to the adhesion of migrating cells to microelectrodes using the xCELLigence RTCA technology as previously described. […]
Fig 2 Both linear and cyclic SRSRY peptides bind to FPR1. […] Fluorimetric measurement of cell-associated fluorescence was assed using 485 nm excitation and 535 nm emission filters. Data are expressed as a percentage of the fluorescence associated to RBL-2H3 cells exposed to FITC-fMLF alone (CTL = 100%) and represent a mean ± SD from triplicates. *Statistical significance (t-test) against None with p<0.001. […] Cell migration of RBL-2H3/ETFR cells monitored by the xCELLigence system. […]

Peptide text beside a SMILES is read from it.

Consider `N=C(N)NCCC[C@@H]1NC(=O)[C@H](CO)NC(=O)[C@H](Cc2ccc(O)cc2)NC(=O)[C@H](CCCNC(=N)N)NC(=O)[C@H](CO)NC1=O` [[SRSRY], [Ser-Arg-Ser-Arg-Tyr]] (cyclo(RSRYS)), for which the “RBL-2H3/ETFR cell migration toward 10 nM fMLF in presence of peptide” value (10 nM fMLF mixed with 10 nM peptide) is reported as “reduced to the basal level”. The “RBL-2H3/ETFR cell migration toward the peptide alone” value (10 nM peptide in lower chamber) is on record as “cell migration did not change significantly”.
